One assay deals with PI3Kδ (Homo sapiens, UniProt O00329). The assay is described as follows: PI3Kδ kinase assay (ADP-Glo-based biochemical assay).
The next assay has as its target PI3Kα (Homo sapiens, UniProt P42336). The assay is described as follows: PI3Kα kinase assay (ADP-Glo-based biochemical assay). (In general: ADP-Glo turns the ADP formed in a reaction into a luminescent signal.)
In a further assay the target is PI3Kβ (Homo sapiens, UniProt P42338). The assay is described as follows: PI3Kβ kinase assay (ADP-Glo-based biochemical assay). Conditions: n = 3 per dose.
Assay [1] concerns N-methyl-D-aspartic acid (NMDA) receptor. Conditions: uncompetitive, low-affinity, non-selective antagonist; ref Lipton, 2007; cited from earlier work.
Where [2] appears, read: ADP-Glo, n = 3 per dose, read-out: IC50 PI3Kδ.
The mark [3] stands for this setting: ADP-Glo, n = 3 per dose, read-out: IC50 PI3Kα.

pIC50: −log10 of the molar value. Structures can show the parent of a compound that is named as a salt. Where two headings read alike, the source gives them in different places.

PI3Kα, sequence (P42336 whole entry): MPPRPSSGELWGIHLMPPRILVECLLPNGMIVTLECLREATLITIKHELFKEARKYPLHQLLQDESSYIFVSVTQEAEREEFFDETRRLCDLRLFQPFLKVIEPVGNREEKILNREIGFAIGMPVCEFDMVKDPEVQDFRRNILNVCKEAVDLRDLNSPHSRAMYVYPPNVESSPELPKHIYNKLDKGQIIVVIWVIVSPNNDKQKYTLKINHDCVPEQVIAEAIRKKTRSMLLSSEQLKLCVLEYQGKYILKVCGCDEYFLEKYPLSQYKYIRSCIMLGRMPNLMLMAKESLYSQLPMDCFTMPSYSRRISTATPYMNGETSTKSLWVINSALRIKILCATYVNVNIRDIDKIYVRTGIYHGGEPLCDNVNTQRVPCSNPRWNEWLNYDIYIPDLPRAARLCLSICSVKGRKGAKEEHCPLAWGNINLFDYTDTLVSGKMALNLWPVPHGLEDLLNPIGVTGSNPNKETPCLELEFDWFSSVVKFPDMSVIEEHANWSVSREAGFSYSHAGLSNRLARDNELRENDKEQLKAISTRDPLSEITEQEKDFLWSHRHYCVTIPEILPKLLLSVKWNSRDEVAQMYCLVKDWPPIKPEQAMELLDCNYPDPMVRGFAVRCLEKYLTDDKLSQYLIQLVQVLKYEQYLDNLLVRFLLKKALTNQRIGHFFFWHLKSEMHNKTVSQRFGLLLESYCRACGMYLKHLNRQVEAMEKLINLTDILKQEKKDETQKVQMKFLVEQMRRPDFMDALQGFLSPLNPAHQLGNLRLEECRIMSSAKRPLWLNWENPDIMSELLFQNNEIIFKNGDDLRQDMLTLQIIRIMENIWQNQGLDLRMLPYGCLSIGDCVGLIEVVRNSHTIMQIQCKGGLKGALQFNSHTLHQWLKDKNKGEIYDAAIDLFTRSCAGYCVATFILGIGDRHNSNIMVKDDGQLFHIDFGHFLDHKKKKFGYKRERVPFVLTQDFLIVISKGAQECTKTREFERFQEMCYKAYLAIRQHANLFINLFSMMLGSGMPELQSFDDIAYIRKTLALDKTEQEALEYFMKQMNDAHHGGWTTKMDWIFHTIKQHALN
PI3Kα, sequence (P27986 whole entry partner): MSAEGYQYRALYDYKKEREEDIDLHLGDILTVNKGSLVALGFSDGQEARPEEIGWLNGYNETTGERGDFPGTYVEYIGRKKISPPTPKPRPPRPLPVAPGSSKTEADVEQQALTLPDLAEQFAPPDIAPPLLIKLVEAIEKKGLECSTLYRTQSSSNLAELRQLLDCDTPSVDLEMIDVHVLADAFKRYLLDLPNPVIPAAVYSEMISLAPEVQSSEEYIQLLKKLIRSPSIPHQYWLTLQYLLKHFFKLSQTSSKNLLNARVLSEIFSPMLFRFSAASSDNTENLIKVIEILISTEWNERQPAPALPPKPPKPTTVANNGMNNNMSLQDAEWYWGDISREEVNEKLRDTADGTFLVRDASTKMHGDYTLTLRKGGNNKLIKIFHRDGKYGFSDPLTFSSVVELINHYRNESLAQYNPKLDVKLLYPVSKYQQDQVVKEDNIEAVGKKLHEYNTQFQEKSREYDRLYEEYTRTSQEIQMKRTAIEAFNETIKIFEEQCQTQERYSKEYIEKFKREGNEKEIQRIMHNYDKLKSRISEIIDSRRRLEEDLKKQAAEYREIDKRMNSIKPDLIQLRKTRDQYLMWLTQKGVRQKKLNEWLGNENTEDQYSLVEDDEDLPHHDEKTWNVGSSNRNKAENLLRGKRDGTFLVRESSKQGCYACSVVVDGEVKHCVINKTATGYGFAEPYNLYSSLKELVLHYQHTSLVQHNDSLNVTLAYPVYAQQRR
PI3Kδ, sequence (O00329 whole entry): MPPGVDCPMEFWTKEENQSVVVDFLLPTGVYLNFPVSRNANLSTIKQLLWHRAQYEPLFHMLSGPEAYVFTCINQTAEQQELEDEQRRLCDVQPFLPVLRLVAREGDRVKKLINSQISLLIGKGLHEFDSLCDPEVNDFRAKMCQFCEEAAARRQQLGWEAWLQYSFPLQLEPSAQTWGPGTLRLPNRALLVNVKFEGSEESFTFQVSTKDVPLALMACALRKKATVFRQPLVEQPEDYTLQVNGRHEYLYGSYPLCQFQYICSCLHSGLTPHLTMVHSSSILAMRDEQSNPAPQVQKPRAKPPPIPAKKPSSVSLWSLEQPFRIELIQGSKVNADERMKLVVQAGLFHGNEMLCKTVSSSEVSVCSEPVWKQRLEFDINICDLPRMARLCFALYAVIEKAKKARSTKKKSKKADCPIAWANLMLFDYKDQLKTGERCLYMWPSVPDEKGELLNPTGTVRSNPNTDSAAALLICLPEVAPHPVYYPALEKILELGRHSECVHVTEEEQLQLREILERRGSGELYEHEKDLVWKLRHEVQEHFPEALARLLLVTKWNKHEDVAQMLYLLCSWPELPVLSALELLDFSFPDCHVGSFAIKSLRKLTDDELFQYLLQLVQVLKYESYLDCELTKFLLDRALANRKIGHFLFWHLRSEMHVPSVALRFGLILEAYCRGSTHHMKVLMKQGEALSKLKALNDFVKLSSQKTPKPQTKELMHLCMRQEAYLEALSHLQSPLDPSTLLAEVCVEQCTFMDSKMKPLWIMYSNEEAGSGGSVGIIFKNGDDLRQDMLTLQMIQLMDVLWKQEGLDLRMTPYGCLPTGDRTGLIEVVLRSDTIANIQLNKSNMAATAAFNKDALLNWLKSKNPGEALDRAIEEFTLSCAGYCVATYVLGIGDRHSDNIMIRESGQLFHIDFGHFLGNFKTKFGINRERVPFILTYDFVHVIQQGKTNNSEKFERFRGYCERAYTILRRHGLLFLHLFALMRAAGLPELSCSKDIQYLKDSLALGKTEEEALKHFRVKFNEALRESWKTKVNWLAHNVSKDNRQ
PI3Kδ, sequence (P27986 whole entry partner): as the sequence (P27986 whole entry partner) above
PI3Kβ, sequence (P42338 whole entry): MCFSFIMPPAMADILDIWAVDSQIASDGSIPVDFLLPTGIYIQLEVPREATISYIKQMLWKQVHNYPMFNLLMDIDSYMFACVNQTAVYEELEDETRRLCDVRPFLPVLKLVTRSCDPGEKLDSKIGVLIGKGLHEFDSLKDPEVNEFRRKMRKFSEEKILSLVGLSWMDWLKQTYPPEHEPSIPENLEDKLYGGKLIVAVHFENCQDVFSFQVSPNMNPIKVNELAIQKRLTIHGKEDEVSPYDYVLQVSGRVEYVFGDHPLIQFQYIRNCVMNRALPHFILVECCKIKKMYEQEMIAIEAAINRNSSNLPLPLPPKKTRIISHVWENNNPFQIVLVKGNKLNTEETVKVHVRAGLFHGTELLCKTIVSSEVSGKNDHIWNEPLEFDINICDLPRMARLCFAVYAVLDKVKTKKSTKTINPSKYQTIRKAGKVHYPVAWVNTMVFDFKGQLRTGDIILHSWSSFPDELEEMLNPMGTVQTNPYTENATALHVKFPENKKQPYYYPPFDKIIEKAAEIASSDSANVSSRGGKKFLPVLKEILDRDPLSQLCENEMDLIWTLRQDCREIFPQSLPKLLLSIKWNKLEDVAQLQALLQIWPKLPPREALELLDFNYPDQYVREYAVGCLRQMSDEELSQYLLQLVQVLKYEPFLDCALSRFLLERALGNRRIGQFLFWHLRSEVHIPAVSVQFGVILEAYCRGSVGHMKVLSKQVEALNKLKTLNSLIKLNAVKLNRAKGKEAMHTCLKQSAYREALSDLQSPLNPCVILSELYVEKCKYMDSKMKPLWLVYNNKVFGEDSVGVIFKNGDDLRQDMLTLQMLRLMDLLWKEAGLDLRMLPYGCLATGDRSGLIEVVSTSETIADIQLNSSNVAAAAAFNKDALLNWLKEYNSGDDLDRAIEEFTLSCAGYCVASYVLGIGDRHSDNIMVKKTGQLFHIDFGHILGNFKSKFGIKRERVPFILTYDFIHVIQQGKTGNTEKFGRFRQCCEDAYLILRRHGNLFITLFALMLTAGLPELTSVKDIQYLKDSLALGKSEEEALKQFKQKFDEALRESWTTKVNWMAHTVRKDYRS
PI3Kβ, sequence (P27986 whole entry partner): as the sequence (P27986 whole entry partner) above
Procedure for PI3Kα: (§1) This study aims to determine the effect of test compounds on PI3Kα/β/δ enzyme activity using ADP-Glo-based biochemical assay (Vendor: Promega, Cat#: V9102), following the manufacturer’s instruction. […] Then, the IC50s were calculated by fitting % inhibition values and the log of compound concentrations to the hill slope with the variable slope (called the variable slope model or four-parameter dose-response curve), and the log (inhibitor) vs. response curve was built by GraphPad Prism version 7.0 (GraphPad Software). Data are presented as mean ± SEM, with n = 3 for each drug dose.
Procedure for PI3Kβ: as §1
Procedure for PI3Kδ: as §1

For `CC(C)NCCCn1c(Sc2cc3c(cc2I)OCO3)nc2c(N)ncnc21` [PU-H71], the pIC50 (usually the IC50 on a negative log10 scale, so that one unit is a factor of ten) on PI3Kδ (setting [2]) is 4.70.
Consider `O=C(c1ccc(OCCN2CCCCC2)cc1)c1c(-c2ccc(O)cc2)sc2cc(O)ccc12` [Raloxifene HCl, raloxifene HCl], for which the pIC50 on PI3Kα (setting [3]) was 4.80; on PI3Kβ it was 5.08; on PI3Kδ (setting [2]), 5.37.
For `CC/C(=C(\c1ccccc1)c1ccc(OCCN(C)C)cc1)c1ccccc1` [Tamoxifen, tamoxifen] the same measures were 4.72, 4.85 and 5.00.
As to `CO[C@H]1/C=C\C=C(/C)C(=O)NC2=CC(=O)C(NCCN(C)C)=C(C[C@@H](C)C[C@H](OC)[C@H](O)[C@@H](C)/C=C(\C)[C@@H]1OC(N)=O)C2=O` [alvespimycin], the negative logarithm of the IC50 (pIC50) on PI3Kα (setting [3]) was 4.03; at PI3Kβ it was 4.16; at PI3Kδ (setting [2]) it was 4.55.
Regarding `COc1ccc(CCN2CCC(Nc3nc4ccccc4n3Cc3ccc(F)cc3)CC2)cc1` [astemizole], the negative-log IC50 (pIC50) is 4.74 at PI3Kα (setting [3]), 5.06 against PI3Kβ and 5.22 on PI3Kδ (setting [2]).
Consider `CC12CC3CC(C)(C1)CC(N)(C3)C2` [memantine], for which the “affinity for NMDA receptor” value in assay [1] is listed as “micromolar range”.
Turning to `c1nc2nc(Nc3ccc(N4CCOCC4)cc3)nc(NC3CCCCC3)c2[nH]1` [reversine], the negative-log IC50 (pIC50) is 4.92 on PI3Kα and 5.46 against PI3Kδ.

The values are drawn from PMC9886283, “Specific gene module pair-based target identification and drug discovery” (Frontiers in Pharmacology, 2023).
